Source: ChEMBL document CHEMBL4371024, “Synthesis and characterization of pyridoxine, nicotine and nicotinamide salts of dithiophosphoric acids as antibacterial agents against resistant wound infection” (Bioorg Med Chem, 2019)
Converted amounts (≈) assume the structure as drawn. The source made the active and inactive calls. The calls are words filed in the database; no cut-off is given here.

What was measured:
Klebsiella pneumoniae [1] = experiment: Antibacterial activity against Klebsiella pneumoniae after 24 hrs by broth dilution method; type: functional
Staphylococcus aureus [2] = experiment: Antibacterial activity against Staphylococcus aureus ATCC 29213 after 24 hrs by broth dilution method; type: functional; conditions: ATCC 29213, 24 h
[3] = test system: Staphylococcus epidermidis; experiment: Antibacterial activity against Staphylococcus epidermidis after 24 hrs by broth dilution method; type: functional
Pseudomonas aeruginosa [4] = experiment: Antibacterial activity against Pseudomonas aeruginosa ATCC 27853 after 24 hrs by broth dilution method; type: functional; conditions: ATCC 27853, 24 h
Staphylococcus aureus [5] = experiment: Drug interaction with Staphylococcus aureus cellular surface assessed as decrease in zeta potential at 1 mM treated for 1 hr followed by washing and measured by dynamic light scattering method; type: functional
Staphylococcus aureus [6] = experiment: Ratio of MBC to MIC against Staphylococcus aureus ATCC 29213; type: functional
Pseudomonas aeruginosa [7] = experiment: Drug interaction with Pseudomonas aeruginosa cellular surface assessed as decrease in zeta potential at 1 mM treated for 1 hr followed by washing and measured by dynamic light scattering method; type: functional
Staphylococcus aureus [8] = experiment: Antibacterial activity against multidrug-resistant Staphylococcus aureus after 24 hrs by broth dilution method; type: functional
Pseudomonas aeruginosa [9] = experiment: Antibacterial activity against multidrug-resistant Pseudomonas aeruginosa after 24 hrs by broth dilution method; type: functional
Klebsiella pneumoniae [10] = experiment: Antibacterial activity against multidrug-sensitive Klebsiella pneumoniae after 24 hrs by broth dilution method; type: functional
Enterobacter cloacae = experiment: Antibacterial activity against multidrug-resistant and sensitive Enterobacter cloacae after 24 hrs by broth dilution method; type: functional
Klebsiella pneumoniae [11] = experiment: Ratio of MBC to MIC against Klebsiella pneumoniae; type: functional
Pseudomonas aeruginosa [12] = experiment: Antibacterial activity against ciprofloxacin, imipenem, meronem-resistant and cefepime, piperacillin-tazobactam-sensitive Pseudomonas aeruginosa after 24 hrs by broth dilution method; type: functional
Erythrocyte = experiment: Hemolytic activity in human erythrocytes at >100 uM; type: ADME, cell-based
Pseudomonas aeruginosa [13] = experiment: Antibacterial activity against ciprofloxacin-resistant and multidrug-sensitive Pseudomonas aeruginosa after 24 hrs by broth dilution method; type: functional
Escherichia coli = experiment: Antibacterial activity against multidrug-resistant and sensitive Escherichia coli after 24 hrs by broth dilution method; type: functional
[14] = Cytotoxicity against human HSF cells after 24 hrs by MTT assay; type: cell-based
Pseudomonas aeruginosa [15] = experiment: Antibacterial activity against multidrug-sensitive Pseudomonas aeruginosa after 24 hrs by broth dilution method; type: functional
Staphylococcus aureus [16] = experiment: Antibacterial activity against methicillin, cefoxytin, levfloxacin-resistant and erythromycin, clindamycin-senstitive Staphylococcus aureus after 24 hrs by broth dilution method; type: functional
[17] = Aggregation property of the compound assessed as mean hydrodynamic diameter at 1 mM after 1 hr by dynamic light scattering method; type: physicochemical; conditions: 1000 µM
Staphylococcus aureus [18] = experiment: Bactericidal activity against Staphylococcus aureus ATCC 29213 incubated for 24 hrs followed by replating on Mueller-Hinton agar and further incubated for 24 hrs; type: functional; conditions: ATCC 29213, 24 h
Pseudomonas aeruginosa [19] = experiment: Ratio of MBC to MIC against Pseudomonas aeruginosa ATCC 27853; type: functional
[20] = Aggregation property of the compound in DMEM culture medium at 1 mM after 1 hr by dynamic light scattering method; type: physicochemical; conditions: 1000 µM
Klebsiella pneumoniae [21] = experiment: Bactericidal activity against Klebsiella pneumoniae incubated for 24 hrs followed by replating on Mueller-Hinton agar and further incubated for 24 hrs; type: functional
Staphylococcus aureus [22] = experiment: Antibacterial activity against methicillin, cefoxytin-resistant and levofloxacin, erythromycin, clindamycin-senstitive Staphylococcus aureus after 24 hrs by broth dilution method; type: functional
Pseudomonas aeruginosa [23] = experiment: Bactericidal activity against Pseudomonas aeruginosa ATCC 27853 incubated for 24 hrs followed by replating on Mueller-Hinton agar and further incubated for 24 hrs; type: functional; conditions: ATCC 27853, 24 h
[24] = Cytotoxicity against human HSF cells after 72 hrs by MTT assay; type: cell-based
Staphylococcus aureus [25] = experiment: Inhibition of extracellular component secretion and matrix formation in Staphylococcus aureus assessed as uncovering of bacterial cells at 1 uM by scanning electron microscopy; type: functional, organism-based
Pseudomonas aeruginosa [26] = experiment: Inhibition of extracellular component secretion and matrix formation in Pseudomonas aeruginosa assessed as induction of bacterial aggregation at 1 uM by scanning electron microscopy; type: functional, organism-based
Staphylococcus aureus [27] = experiment: Inhibition of extracellular component secretion and matrix formation in Staphylococcus aureus assessed as induction of bacterial aggregation at 1 uM by scanning electron microscopy; type: functional, organism-based
Pseudomonas aeruginosa [28] = experiment: Inhibition of extracellular component secretion and matrix formation in Pseudomonas aeruginosa assessed as uncovering bacterial cells at 1 uM by scanning electron microscopy; type: functional, organism-based
Pseudomonas aeruginosa [29] = experiment: Inhibition of extracellular component secretion and matrix formation in Pseudomonas aeruginosa assessed as induction of morphological changes at 1 uM by scanning electron microscopy; type: functional, organism-based
Staphylococcus aureus [30] = experiment: Inhibition of extracellular component secretion and matrix formation in Staphylococcus aureus assessed as induction of morphological changes at 1 uM by scanning electron microscopy; type: functional, organism-based
Staphylococcus aureus [31] = experiment: Inhibition of extracellular component secretion and matrix formation in Staphylococcus aureus assessed as inhibition of polysaccharide matrix formation at 1 uM by scanning electron microscopy; type: functional, organism-based
Pseudomonas aeruginosa [32] = experiment: Inhibition of extracellular component secretion and matrix formation in Pseudomonas aeruginosa assessed as inhibition of polysaccharide matrix formation at 1 uM by scanning electron microscopy; type: functional, organism-based

CC(C)[C@H]1CC[C@H](C)C[C@@H]1OP(=S)(S)O[C@H]1C[C@@H](C)CC[C@@H]1C(C)C.Cc1ncc(CO)c(CO)c1O
MIC (Klebsiella pneumoniae [1]): 320 µM
MIC (Staphylococcus aureus [2]): 40 µM
MIC [3]: 10 µM
MIC (Pseudomonas aeruginosa [4]): 320 µM

CC(C)[C@@H]1CC[C@@H](C)C[C@H]1OP(=S)(S)O[C@@H]1C[C@H](C)CC[C@H]1C(C)C.CN1CCC[C@H]1c1cccnc1 [listing 1 of 2 here]
fold change (FC) (Staphylococcus aureus [5]): 1.2
Ratio (Staphylococcus aureus [6]): 1
fold change (FC) (Pseudomonas aeruginosa [7]): 1.2
MIC (Staphylococcus aureus [8]): 23 µM
MIC (Pseudomonas aeruginosa [9]): 360 µM
MIC (Klebsiella pneumoniae [10]): 360 µM
MIC (Klebsiella pneumoniae [1]): 320 µM
MIC (Enterobacter cloacae): 360 µM
Ratio (Klebsiella pneumoniae [11]): 1
MIC (Staphylococcus aureus [2]): 20 µM
MIC (Pseudomonas aeruginosa [12]): 360 µM
Activity (Erythrocyte): Toxic
MIC (Pseudomonas aeruginosa [13]): 360 µM
MIC (Escherichia coli): 360 µM
IC50 [14]: 81.3 µM
MIC (Pseudomonas aeruginosa [15]): 360 µM
MIC (Staphylococcus aureus [16]): 11 µM
Activity [17]: 141.7 nm
MIC [3]: 20 µM
MBC (Staphylococcus aureus [18]): 20 µM
Ratio (Pseudomonas aeruginosa [19]): 1
Activity [20]: Active
MBC (Klebsiella pneumoniae [21]): 640 µM
MIC (Staphylococcus aureus [22]): 11 µM
MBC (Pseudomonas aeruginosa [23]): 320 µM
MIC (Pseudomonas aeruginosa [4]): 320 µM
IC50 [24]: 57.6 µM

CC(C)[C@@H]1CC[C@@H](C)C[C@H]1OP(=S)(S)O[C@@H]1C[C@H](C)CC[C@H]1C(C)C.Cc1ncc(CO)c(CO)c1O [listing 1 of 2 here]
Activity (Staphylococcus aureus [25]): Active
Activity (Pseudomonas aeruginosa [26]): Active
Activity (Staphylococcus aureus [27]): Active
Activity (Pseudomonas aeruginosa [28]): Active

C[C@@H]1[C@@H](OP(=S)(S)O[C@H]2C[C@H]3C[C@@H]([C@@H]2C)C3(C)C)C[C@H]2C[C@@H]1C2(C)C
MIC (Klebsiella pneumoniae [1]): 3110 µM (≈ 1250 µg/mL)
MIC (Staphylococcus aureus [2]): 390 µM (≈ 157 µg/mL)
MIC [3]: 190 µM (≈ 76.5 µg/mL)
MIC (Pseudomonas aeruginosa [4]): 1560 µM (≈ 628 µg/mL)

CC1(C)[C@H]2CC[C@](C)(C2)[C@H]1OP(=S)(S)O[C@H]1C(C)(C)[C@H]2CC[C@]1(C)C2
MIC (Klebsiella pneumoniae [1]): 1940 µM (≈ 781 µg/mL)
MIC (Staphylococcus aureus [2]): 240 µM (≈ 96.6 µg/mL)
MIC [3]: 240 µM (≈ 96.6 µg/mL)
MIC (Pseudomonas aeruginosa [4]): 1940 µM (≈ 781 µg/mL)

CC(C)[C@@H]1CC[C@@H](C)C[C@H]1OP(=S)(S)O[C@@H]1C[C@H](C)CC[C@H]1C(C)C.CN1CCC[C@H]1c1cccnc1 [listing 2 of 2 here]
Activity (Pseudomonas aeruginosa [29]): Active
Activity (Staphylococcus aureus [30]): Active
Activity (Staphylococcus aureus [31]): Active
Activity (Pseudomonas aeruginosa [32]): Active

C[C@@H]1[C@@H](OP(=S)(S)O[C@H]2C[C@H]3C[C@@H]([C@@H]2C)C3(C)C)C[C@H]2C[C@@H]1C2(C)C.Cc1ncc(CO)c(CO)c1O
MIC (Klebsiella pneumoniae [1]): 320 µM
MIC (Staphylococcus aureus [2]): 20 µM
MIC [3]: 20 µM
MIC (Pseudomonas aeruginosa [4]): 320 µM

CC1(C)[C@H]2CC[C@]1(C)[C@H](OP(=S)(S)O[C@@H]1C[C@@H]3CC[C@@]1(C)C3(C)C)C2
MIC (Klebsiella pneumoniae [1]): 6210 µM (≈ 2500 µg/mL)
MIC (Staphylococcus aureus [2]): 6210 µM (≈ 2500 µg/mL)
MIC [3]: 6210 µM (≈ 2500 µg/mL)
MIC (Pseudomonas aeruginosa [4]): 6210 µM (≈ 2500 µg/mL)

CCCCOP(=S)(S)OCCCC.NC(=O)c1cccnc1
MIC (Klebsiella pneumoniae [1]): 4130 µM
MIC (Staphylococcus aureus [2]): 4130 µM
MIC [3]: 4130 µM
MIC (Pseudomonas aeruginosa [4]): 4130 µM

CN1CCC[C@H]1c1cccnc1.C[C@@H]1[C@@H](OP(=S)(S)O[C@H]2C[C@H]3C[C@@H]([C@@H]2C)C3(C)C)C[C@H]2C[C@@H]1C2(C)C
MIC (Klebsiella pneumoniae [1]): 320 µM
MIC (Staphylococcus aureus [2]): 20 µM
MIC [3]: 20 µM
MIC (Pseudomonas aeruginosa [4]): 320 µM

CC(C)[C@@H]1CC[C@@H](C)C[C@H]1OP(=S)(S)O[C@@H]1C[C@H](C)CC[C@H]1C(C)C.Cc1ncc(CO)c(CO)c1O [listing 2 of 2 here]
fold change (FC) (Staphylococcus aureus [5]): 1.2
Ratio (Staphylococcus aureus [6]): 2
fold change (FC) (Pseudomonas aeruginosa [7]): 1.2
MIC (Staphylococcus aureus [8]): 20 µM
MIC (Pseudomonas aeruginosa [9]): 323 µM
MIC (Klebsiella pneumoniae [10]): 323 µM
MIC (Klebsiella pneumoniae [1]): 320 µM
MIC (Enterobacter cloacae): 323 µM
Ratio (Klebsiella pneumoniae [11]): 2
MIC (Staphylococcus aureus [2]): 20 µM
MIC (Pseudomonas aeruginosa [12]): 323 µM
Activity (Erythrocyte): Toxic
MIC (Pseudomonas aeruginosa [13]): 323 µM
MIC (Escherichia coli): 323 µM
IC50 [14]: 92.2 µM
MIC (Pseudomonas aeruginosa [15]): 323 to 647 µM
MIC (Staphylococcus aureus [16]): 20 µM
Activity [17]: 108.9 nm
MIC [3]: 10 µM
MBC (Staphylococcus aureus [18]): 40 µM
Ratio (Pseudomonas aeruginosa [19]): 2
Activity [20]: Active
MBC (Klebsiella pneumoniae [21]): 640 µM
MIC (Staphylococcus aureus [22]): 20 µM
MBC (Pseudomonas aeruginosa [23]): 320 µM
MIC (Pseudomonas aeruginosa [4]): 320 µM
IC50 [24]: 48.6 µM
